Experimental data published in PubChem BioAssay (NCI).
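Following 48 hours of exposure in 96-well plates, responses at five concentrations were used to interpolate endpoints linearly. GI50 = concentration required for 50% inhibition of growth. TGI marks complete inhibition of growth.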 Where a SMILES comes first, the peptide text is derived from it. [ ]: non-standard residue; d: D form. The star is where a group is joined. ξ: configuration not given here. ξF = NC(Cc1ccccc1)C(=O)O; Cbz = O=C(OCc1ccccc1)*; Aib = CC(C)(N)C(=O)O

What was measured:
Test in all cases: inhibition of tumour cell growth, NCI panel, 48 h
M14 melanoma = system: M14 melanoma
NCI/ADR-RES ovarian = system: NCI/ADR-RES ovarian
NCI-H23 lung = system: NCI-H23 lung
CAKI-1 renal = system: CAKI-1 renal
COLO 205 colon = system: COLO 205 colon
CCRF-CEM leukemia = system: CCRF-CEM leukemia
UACC-62 melanoma = system: UACC-62 melanoma
SK-MEL-28 melanoma = system: SK-MEL-28 melanoma
HOP-62 NSCLC = system: HOP-62 NSCLC
SN12C renal = system: SN12C renal

SMILES	TGI (M14 melanoma) [µM]	TGI (NCI/ADR-RES ovarian) [µM]	TGI (NCI-H23 lung) [µM]	TGI (CAKI-1 renal) [µM]	TGI (COLO 205 colon) [µM]	TGI (CCRF-CEM leukemia) [µM]	TGI (UACC-62 melanoma) [µM]	TGI (SK-MEL-28 melanoma) [µM]	TGI (HOP-62 NSCLC) [µM]	TGI (SN12C renal) [µM]	GI50 (M14 melanoma) [µM]	GI50 (NCI-H23 lung) [µM]	GI50 (CAKI-1 renal) [µM]	GI50 (COLO 205 colon) [µM]	GI50 (CCRF-CEM leukemia) [µM]	GI50 (UACC-62 melanoma) [µM]	GI50 (SK-MEL-28 melanoma) [µM]	GI50 (HOP-62 NSCLC) [µM]	GI50 (SN12C renal) [µM]	GI50 (NCI/ADR-RES ovarian) [µM]
CCOC(=O)CCC(NC(=O)OCc1ccccc1)C(=O)NC(CCC(=O)OCC)C(=O)NNC(=O)OC(C)(C)C (configuration not stated)	> 100	> 100	> 100	> 100	> 100	> 100	> 100	> 100	> 100	> 100	–	–	–	–	–	–	–	–	–	–
C[CH2][Ge]([CH2]C)([CH2]C)[O]C(=O)CCC(=O)[O][Ge]([CH2]C)([CH2]C)[CH2]C	> 100	–	> 100	> 100	> 100	> 100	> 100	> 100	> 100	> 100	> 100	39.7	> 100	> 100	23.7	> 100	> 100	> 100	> 100	–
COC(=O)C(C)(C)NC(=O)C(Cc1ccccc1)NC(=O)C(C)(C)NC(=O)OCc1ccccc1 (configuration not stated) (Cbz-[Aib]-[ξF]-[Aib]-OMe)	> 100	> 100	–	> 100	> 100	> 100	> 100	> 100	> 100	–	–	–	–	–	–	–	–	–	–	–
N=C(N)c1ccc(-c2ccc(-c3cccs3)s2)s1	–	3.62	3.42	2.95	–	–	3.28	–	–	3.3	–	1.62	1.57	–	–	1.82	–	–	1.58	1.79
C(=N\OCCc1ccccc1)/c1cccnc1	> 100	> 100	> 100	–	> 100	> 100	> 100	> 100	> 100	> 100	–	–	–	–	–	–	–	–	–	–
NCCSCc1ccccc1Cl	> 100	> 100	95	> 100	–	78.8	> 100	> 100	> 100	> 100	–	–	–	–	–	–	–	–	–	–
COc1cc(-c2n/c(=C\c3c(O)[nH]c4cc(Cl)ccc34)cc3c2=Nc2ccccc2-3)cc(OC)c1OC	5.66	20.1	23.2	60	–	> 100	14.1	13.8	5.73	26.1	2.41	3.57	10.9	–	3.88	3.4	4.05	2.64	4.15	2.84
Cc1ccc(C(O)(c2ccc(C)cc2)c2ccccn2)cc1	> 100	–	> 100	> 100	> 100	> 100	> 100	> 100	> 100	> 100	–	–	–	–	–	–	–	–	–	–
CC(=O)ON1C(=O)c2cccc3cccc(c23)C1=O	90.9	> 100	50	49	86.7	> 100	52.5	44.6	85.4	–	–	–	–	–	–	–	–	–	–	–
c1cncc(O[Si](Oc2cccnc2)(Oc2cccnc2)Oc2cccnc2)c1	> 100	–	> 100	> 100	> 100	–	> 100	> 100	–	> 100	–	–	–	–	–	–	–	–	–	–
